US20230339983A1, “FLUORESCENT COMPOUNDS SPECIFIC FOR PLURIPOTENT STEM CELLS AND REPROGRAMMING-READY CELLS AND METHODS OF USING THE SAME” (Agency for Science, Technology and Research, priority 2018, published 2023)

Experiments:
[1] = system: human iPS cells (AiPS, DiPS colonies); experiment: DOFLA screening (primary, secondary, tertiary) of fluorescent probes on iPS cells versus original somatic cells; format: cell-based
Description: The chemical properties of the BDL library are previously described (Jeong et al., 2015). BDL-E5 is based on 4,4-difluoro-4-bora-3a,4a-diaza-s-indacene (BODIPY), with calculated mass of 528.3 and absorption maximum/emission maximum of 578/599 nm. Primary, secondary and tertiary screening of fluorescent probes on AiPS, ASCs, DiPS and DPSCs were performed as described previously (Im, et al. (2010). Angew Chem Int Ed Engl 49, 7497-7500; Kang, et al. (2011). Nat Protoc 6, 1044-1052) and in the Results section. Unless described otherwise, BDL-E5 and CDy1 images were acquired by the Tetramethylrhodamine (TRITC) channel of ImageXpress Micro High-Content Imaging System, which had the Adaptive Background Correction function enabled.
A high-throughput system using in-house Diversity Orientated Fluorescence Library Approach (DOFLA) was employed to screen 46 fluorescent probes that the inventors predicted may specifically recognize pluripotent stem cells. To identify fluorescent probes that detected human pluripotent stem cells, ASCs, ASC-derived iPS (AiPS) cells, DPSCs, and DPSC-derived iPS (DiPS) cells were used. […] Cells were seeded onto 384-well plates (primary screen) or 96-well plates (secondary and tertiary screen) coated with mouse embryonic fibroblasts (MEF) or matrigel (MG) for DOFLA screening (FIG. 1A). After 48 h, cells were stained with library probes (500 nM) for 1 h. Fluorescence was imaged using the ImageXpress System under the following conditions: “No wash” (after 1 h probe incubation), “Wash 0 min” (after one wash with PBS), “Wash 60 min” (after wash and destain for 1 h) and “Wash 180 min” (after wash and destain for 3 h) (FIG. 1A).
Images were analyzed using the MetaXpress Image Acquisition and Analysis software. Following tertiary screening, two probes were shortlisted to develop further as pluripotent probes: BDL-E5 and CDy1. The chemical structure of BDL-E5 is depicted in FIG. 1B.
Secondary screening was performed to confirm that the probes selectively stained different iPS colonies. […] The BDL-E5^+ colonies were also positively stained for the pluripotency marker TRA-1-60.
Based on the primary and secondary screenings for live fluorescent probes that can specifically identify pluripotent cells, BDL-E5 and CDy1 were chosen as two probes to further analyze. Tertiary screening was performed using the two probes on AiPS colonies under the following probe staining conditions: No wash, Wash 0 min, Wash 60 min, and Wash 180 min.

reprogramming DPSCs = experiment: BDL-E5 live staining time course of episomally reprogrammed DPSCs on MG; format: cell-based, human
Description: (§1) Episomal plasmids developed by Yamanaka's lab were obtained from Addgene: pCXLEhOct3/4-shp53-F (Addgene #27077), pCXLE-hSK (Addgene #27078), pCXLE-hUL (Addgene #27080) and pCXLE-EGFP (Addgene #27082) (Okita, et al. (2011). Nat Methods 8, 409-412). 1×10^6 cells were suspended together with 1 μg of each episomal vector in Nucleofector solution supplied in the Nucleofector Kit R (Lonza). Then the cells were transfected with the Program FF-113 on a Nucleofector 2b Device. The transfected cells were then cultured in ASC or DPSC medium (MSC medium) supplemented with 0.5 mM sodium butyrate, with daily media change. On Day 7 dpn, 1×10^5 viable cells were seeded over MEF feeders (GlobalStem) into one well of a 6-well plate for feeder-based iPS derivation; 2×10^5 viable cells were seeded for feeder-free iPS derivation into one well of a 6-well plate pre-coated with Matrigel (Corning). The next day, MSC medium was changed to feeder-based hES medium (DMEM/F12 supplemented with 20% knock out serum replacement, 1% GlutaMAX, 1% NEAA, Pen/Strep, 0.1 mM p-mercaptoethanol and 10 ng/ml b-FGF) or to feeder-free mTeSR1 (StemCell Technologies), supplemented with sodium butyrate. At 12 dpn, supplementation of sodium butyrate was stopped, and conditioned further with SMC4 cocktail (consisting of small molecules: PD0325901, CHIR99021, Thiazovivin, and SB431542 (FOCUS Biomolecules)) in hES medium/mTeSR1. This media supplement was continued until initial colony formation began.
(§2) Reprogrammed cells were immune-stained with fluorescent live cell stain TRA-1-60 (R&D Systems, GloLIVE NL557) as per manufacturer's instructions. After incubating with the live staining antibodies for 30 min and Hoechst 33342 for 10 min, cells were washed 3 times with PBS and images with the Cy5 and DAPI channels, respectively, were immediately captured.
(§3) Further experiments were carried out using BDL-E5. To determine whether BDL-E5 identifies the early stages of pluripotency, ASCs and DPSCs were reprogrammed using nucleofection of episomal vectors, and seeded onto MG-coated plates (feeder-free, viral-free reprogramming method). […]

BJ human fibroblasts = experiment: Staining of BJ fibroblasts reprogrammed with lentiviral Yamanaka factors; format: cell-based
Text: iPS cells were also generated from DPSCs with the traditional protocol involving retroviral vectors expressing OCT4, SOX2, KLF4, and C-MYC (Sugii, et al. (2011). Nature Protoc 6(3):346-358). BJ human neonatal fibroblasts were reprogrammed using lentiviral OCT4, SOX2, KLF4, and C-MYC as described previously (Toh, et al. (2016). Cell Rep 15(12):2597-2607).
We also tested whether BDL-E5 worked for commonly used reprogramming methods and cell type. DPSCs were infected with retroviral vectors expressing four Yamanaka factors, and plated onto MEF. […] In addition, BJ human fibroblasts were reprogrammed with lentiviral Yamanaka factors.

reprogramming ASCs = experiment: BDL-E5 live staining time course of episomally reprogrammed ASCs on MG; format: cell-based, human
Description: as §1, §2, §3

With COc1cc(F)c(/C=C/c2cc(C)c3n2[B-](F)(F)[N+]2=C(CCC(=O)NCCN(C)C)C=CC2=C3)cc1OC [BDL-E5] the “intensity of fluorescence in human iPS cells compared with original somatic cells and MEFs” value ([1]; 500 nM probe, 1 h, after tertiary screening) was “significantly increased intensity of fluorescence”, the “staining of AiPS colonies compared with original somatic cells (ASCs)” value ([1]; primary screening, MEF- or MG-coated plates, 500 nM, 1 h, BDL-E5 No wash) was “increased BDL-E5 staining” and the “staining of DiPS colonies compared with original DPSCs” value ([1]; secondary screening, MEF- or MG-coated plates, 500 nM, 1 h, BDL-E5 No wash) was “significantly increased fluorescence intensity”. For the same molecule, the “wash condition under which staining (signal-to-background ratio) was greatest” value ([1]; tertiary screening, AiPS colonies on MEF-coated plates) was “No wash”, the “wash condition under which staining was greatest” value ([1]; tertiary screening, AiPS colonies on MG-coated plates) was “No wash” and the “intensity of fluorescence of staining at 7, 14, 21, 28 dpn” value (reprogramming DPSCs; iPS colonies formed from DPSCs) was “increased with increasing time”. For the same molecule, the “fate of stained cells tracked in the same field of view until colony formation” value (reprogramming DPSCs; reprogrammed DPSCs, staining every 48 h, 10-24 dpn) was “only cells staining positive for BDL-E5 formed iPS colonies”, the “time at which positive cells/colonies were found” value (reprogramming DPSCs; reprogramming DPSCs, MG-coated plates, episomal feeder-free) was 7 dpn and the “staining of reprogramming versus non-reprogramming cells” value (BJ human fibroblasts) was “successfully stained reprogramming, but not non-reprogramming cells”. For the same molecule, the “staining strength compared with TRA-1-60” value (BJ human fibroblasts) was “stronger than that of TRA-1-60”, the “intensity of fluorescence of staining at 7, 14, 21, 28 dpn” value (reprogramming ASCs; iPS colonies formed from ASCs) was “increased with increasing time” and the “fate of stained cells tracked in the same field of view until colony formation” value (reprogramming ASCs; reprogrammed ASCs, staining every 48 h, 10-24 dpn) was “only cells staining positive for BDL-E5 formed iPS colonies”. For the same molecule, the “time at which positive cells/colonies were found” value (reprogramming ASCs; reprogramming ASCs, MG-coated plates, episomal feeder-free) was “around 14 dpn”.
